Data from patent US11052154B2, “Ras protein degradation inducing molecule and pharmaceutical composition” (Tokyo University of Science Foundation, priority 2016, dated 2021).

Experiments:
Assay type in all cases: cell-based
[1] = biological target: T1, G12V mutant K-Ras protein (Homo sapiens, UniProt P01116, G12V); assay: Degradation (knockdown) of G12V mutant K-Ras protein forcibly expressed in HeLa cells, FACS analysis; details: FIG. 3
T1 construct: expressed in transfected cells; host or cells: HeLa

[2] = biological target: T2, G12D mutant K-Ras protein (Homo sapiens, UniProt P01116, G12D); assay: Degradation (knockdown) of G12D mutant K-Ras protein forcibly expressed in HeLa cells, Western blot analysis; details: FIG. 4
T2 construct: expressed in transfected cells; host or cells: HeLa
Description: In Example 5, degradation (knockdown) of the G12D mutant K-Ras protein forcibly expressed in HeLa cells through TUS-007 was evaluated by Western blot analysis.
A plasmid expressing the G12D mutant K-Ras protein (K-Ras-G12D) was prepared, as in Example 4.
As in Example 4, the plasmid was introduced into HeLa cells to transiently overexpress a G12D mutant K-Ras protein or a DsRed protein for comparison in the cells. HeLa cells into which the plasmid had been introduced were seeded in a 24-well plate at a cell density of 4×10^4 cells/well, and then cultured under conditions of 37° C. and 5 vol % CO2 for 40 hours.
TUS-007 was added to HeLa cells as in Example 4. Furthermore, in addition to an experiment group in which a DMSO solution containing TUS-007 had been added, an experiment group in which a DMSO solution containing Ras-SOS-NH2 had been added was prepared. DMSO was used as a control.
As in Example 3, degradation of a G12D mutant K-Ras protein through TUS-007 was evaluated by Western blot analysis.

[3] = biological target: T3, endogenous wild-type K-Ras protein (Homo sapiens, UniProt P01116); assay: Degradation of endogenous wild-type K-Ras protein in HeLa cells, Western blot analysis; details: 48 hours after addition, vs control (DMSO), FIG. 5
T3 construct: an endogenous wild-type K-Ras protein; endogenous in cells; host or cells: HeLa
Description: In Example 6, degradation (knockdown) of an endogenous wild-type K-Ras protein and wild-type H-Ras protein in HeLa cells to which TUS-007 had been added was evaluated by Western blot analysis.
HeLa cells were seeded in a 24-well plate at a cell density of 8×10^4 cells/well, and then cultured under conditions of 37° C. and 5 vol % CO2 for 16 hours.
After 16 hours from cell seeding, TUS-007 was added to HeLa cells as follows. As a medium, a serum-free medium (37° C.) in which 1 mass % L-glutamine solution (Sigma-Aldrich) was added to D-MEM (high D-glucose, phenol red, sodium pyruvate (Wako Pure Chemical Industries, Ltd.)) was used. It is noted that the L-glutamine solution was added immediately before use. A DMSO solution containing TUS-007 was mixed with the medium so that the concentration of DMSO was 1 vol %, and added to each well at 500 μL/well, and cultured under conditions of 37° C. and 5 vol % CO2. As a control, DMSO was used. […]
After electrophoresis, proteins were transferred to a PVDF membrane (Immobion™-P, Millipore) under conditions of 100 V and 2 hours using a tank-type blotting device and a transfer buffer (25 mM Tris-HCl, 195 mM glycine, 0.01% SDS, 15% methanol). […] Subsequently, the membrane was treated with a chemiluminescence reagent Immobilon™ Western (Millipore), and then chemiluminescence was detected using a lumino image analyzer LAS-3000 (FUJIFILM Corporation). […]

Which results are given for `CCC(C)[C@H](NC(=O)CCCCCCNC(=O)[C@H](CC(C)C)NC(=O)CNC(=O)c1cc(Cl)ccc1Cl)C(=O)Nc1ccc2[nH]c(Cc3c[nH]c4ccccc34)nc2c1` (stereo in doubt) [TUS-007]?
degradation of the G12V mutant K-Ras protein when both TUS-007 and MLN2238 were added ([1]; MLN2238 co-added, compared with TUS-007 alone): G12D mutant and G12V mutant K-Ras protein degradation was inhibited; degradation (knockdown) of the G12V mutant K-Ras protein (shift of GFP/DsRed ratio graph) ([1]; vs control (DMSO)): degradation of the G12D mutant and the G12V mutant K-Ras protein was induced; amount of the G12D mutant K-Ras protein (Western blot) [2]: the amount of the G12D mutant K-Ras protein was reduced in a concentration-dependent manner; amount of the endogenous wild-type K-Ras protein (Western blot) [3]: the amount of the endogenous wild-type K-Ras protein and wild-type H-Ras protein was reduced
